In ChEMBL document CHEMBL1154227, “Guttiferones O and P, prenylated benzophenone MAPKAPK-2 inhibitors from Garcinia solomonensis” (J Nat Prod, 2009):

Biological target: MAP kinase-activated protein kinase 2 (Homo sapiens, UniProt P49137)
Assay: Inhibition of GST-tagged MAPKAPK2 assessed as [33P] incorporation after 40 mins by scintillation proximity assay

Chain of MAP kinase-activated protein kinase 2 (P49137 whole entry): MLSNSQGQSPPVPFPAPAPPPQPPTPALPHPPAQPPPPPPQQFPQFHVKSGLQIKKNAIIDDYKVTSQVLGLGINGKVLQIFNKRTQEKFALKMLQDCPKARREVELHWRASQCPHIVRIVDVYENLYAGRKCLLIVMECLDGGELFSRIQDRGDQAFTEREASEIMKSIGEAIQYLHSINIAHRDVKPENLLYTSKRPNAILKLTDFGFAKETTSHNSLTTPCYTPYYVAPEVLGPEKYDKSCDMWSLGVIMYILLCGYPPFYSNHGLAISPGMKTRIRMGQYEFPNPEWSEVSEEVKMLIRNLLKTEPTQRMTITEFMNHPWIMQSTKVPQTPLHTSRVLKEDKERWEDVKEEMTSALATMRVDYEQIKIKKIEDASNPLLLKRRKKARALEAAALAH

| IC50 [µM] | Structure (SMILES) |
| --- | --- |
| 22 | CC(C)=CCC/C(C)=C/C[C@]12C[C@@H](CC=C(C)C)[C@](C)(CCC=C(C)C)[C@](CC=C(C)C)(C(=O)C(C(=O)c3ccc(O)c(O)c3)=C1O)C2=O [GUTTIFERONE P] |
| 22 | CC(C)=CCC/C(C)=C/C[C@]12C[C@@H](CC=C(C)C)C(C)(C)[C@](C/C=C(\C)CCC=C(C)C)(C(=O)C(C(=O)c3ccc(O)c(O)c3)=C1O)C2=O [GUTTIFERONE O] |
